Like-named read-outs stand apart in the source and are kept apart here.
What was measured:
Format in all cases: in vivo
rice (Oryza sativa) = assay: Test C flooded paddy test: rice; details: scale 0 to 100 (0 no effect, 100 complete control); for plant injury at 62 g/ha / plant injury at 250 g/ha / plant injury at 125 g/ha: Oryza sativa, read-out: Plant response rating, Rice
Summary of the method: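 2-leaf stage plants; pots flooded 3 cm above soil; compound applied into paddy water, depth maintained. Greenhouse 13–15 d. Visual rating vs controls, 0–100 (0 = no effect, 100 = complete control); dash = no result.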

[1] = system: blackgrass (Alopecurus myosuroides); assay: Test D pre-/postemergence: blackgrass
Excerpt: (§1) Seeds of plant species selected from bluegrass (annual bluegrass, Poa annua), blackgrass (Alopecurus myosuroides), canarygrass (Phalaris minor), chickweed (common chickweed, Stellaria media), galium (catchweed bedstraw, Galium aparine), bromegrass, downy (downy bromegrass, Bromus tectorum), field poppy (Papaver rhoeas), field violet (Viola arvensis), foxtail, green (green foxtail, Setaria viridis), deadnettle (henbit deadnettle, Lamium amplexicaule), ryegrass, Italian (Italian ryegrass, Lolium multiflorum), kochia (Kochia scoparia), lambsquarters (Chenopodium album), oilseed rape (Brassica napus), pigweed (Amaranthus retroflexus), Russian thistle (Salsola iberica), chamomile (scentless chamomile, Matricaria inodora), speedwell (bird's-eye speedwell, Veronica persica), barley, spring (spring barley, Hordeum vulgare), wheat, spring (spring wheat, Triticum aestivum), buckwheat, wild (wild buckwheat, Polygonum convolvulus), mustard, wild (wild mustard, Sinapis arvensis), oat, wild (wild oat, Avena fatua), radish, wild (wild radish, Raphanus raphanistrum), windgrass (Apera spica-venti), barley, winter (winter barley, Hordeum vulgare), and wheat, winter (winter wheat, Triticum aestivum) were planted into a silt loam soil and treated preemergence with test chemicals formulated in a non-phytotoxic solvent mixture which included a surfactant. At the same time, these same crop and weed species were planted in pots containing the planting medium comprising spaghnum peat moss, vermiculite, wetting agent and starter nutrients and treated with postemergence applications of the test chemicals formulated in the same manner. Plants ranged in height from 2 to 18 cm (1- to 4-leaf stage).
(§2) Treated plants and controls were maintained in a controlled growth environment for 14 to 21 days after which time all species were compared to controls and visually evaluated. Plant response ratings, summarized in Table D, are based on a scale of 0 to 100 where 0 is no effect and 100 is complete control. A dash (-) response means no test result.

[2] = system: oilseed rape (Brassica napus); assay: Test D pre-/postemergence: oilseed rape
Excerpt: as §1, §2

[3] = system: galium (catchweed bedstraw, Galium aparine); assay: Test D pre-/postemergence: galium
Excerpt: as §1, §2

[4] = Flood (flooded paddy test), 62 g ai/ha, visual rating after 13 to 15 days
[5] = Flood (flooded paddy test), 250 g ai/ha, visual rating after 13 to 15 days
[6] = Postemergence, 31 g ai/ha, scale 0 to 100 (0 no effect, 100 complete control)
[7] = Postemergence, 62 g ai/ha, scale 0 to 100 (0 no effect, 100 complete control)
[8] = Postemergence, 125 g ai/ha, scale 0 to 100, 0 no effect, 100 complete control
[9] = Postemergence, 250 g ai/ha, scale 0 to 100 (0 no effect, 100 complete control)
[10] = Preemergence, 31 g ai/ha, scale 0 to 100, 0 no effect, 100 complete control
[11] = Preemergence, 62 g ai/ha, scale 0 to 100
[12] = Preemergence, 125 g ai/ha, scale 0 to 100
[13] = Preemergence, 250 g ai/ha, scale 0 to 100
[14] = Postemergence, 16 g ai/ha, scale 0 to 100
[15] = Flood (flooded paddy test), 125 g ai/ha, visual rating after 13 to 15 days
[16] = Preemergence, 16 g ai/ha, scale 0 to 100, 0 no effect, 100 complete control

Structure (SMILES) | plant injury at 250 g/ha (rice (Oryza sativa); [5]) | Plant response rating: Blackgrass [1, 6] | Plant response rating: Blackgrass [1, 7] | Plant response rating: Blackgrass [1, 8] | Plant response rating: Blackgrass [1, 9] | Plant response rating, Blackgrass [1, 10] | Plant response rating, Blackgrass [1, 11] | Plant response rating, Blackgrass [1, 12] | Plant response rating: Oilseed Rape [2, 6] | Plant response rating: Oilseed Rape [2, 7] | Plant response rating: Oilseed Rape [2, 8] | Plant response rating: Oilseed Rape [2, 9] | Plant response rating, Oilseed Rape [2, 10] | Plant response rating: Galium [3, 6] | Plant response rating: Galium [3, 7] | Plant response rating: Galium [3, 8] | Plant response rating: Galium [3, 9] | Plant response rating, Blackgrass [1, 14] | Plant response rating, Oilseed Rape [2, 14] | Plant response rating, Galium [3, 14] | other results
Cc1nn(-c2ccc(C(F)(F)F)cc2)nc1Oc1csc(C(F)(F)F)c1 [Compound 1, 4-methyl-2-[4-(trifluoromethyl)phenyl]-5-[[5-(trifluoromethyl)-3-thienyl]oxy]-2H-1,2,3-triazole] | 0% | – | – | – | – | – | – | – | – | – | – | – | – | – | – | – | – | – | – | – | plant injury at 62 g/ha (rice (Oryza sativa); [4]): 0%
FC(F)(F)COc1nn(-c2ccc(C(F)(F)F)cc2)nc1Cc1ccnc(C(F)(F)F)c1 [Compound 14, 4-[[5-(2,2,2-trifluoroethoxy)-2-[4-(trifluoromethyl)phenyl]-2H-1,2,3-triazol-4-yl]methyl]-2-(trifluoromethyl)pyridine] | 45% | 25 | 35 | 70 | 85 | 0 | 0 | 10 | 30 | 70 | 90 | 100 | 0 | 45 | 55 | 55 | 70 | – | – | – | Plant response rating, Blackgrass [1, 13]: 60; Plant response rating, Oilseed Rape [2, 11]: 0; Plant response rating, Oilseed Rape [2, 12]: 30; Plant response rating, Oilseed Rape [2, 13]: 40; Plant response rating, Galium [3, 11]: 0; Plant response rating, Galium [3, 12]: 100; Plant response rating, Galium [3, 13]: 100; plant injury at 62 g/ha (rice (Oryza sativa); [4]): 40%
COc1nn(-c2ccc(C(F)(F)F)cc2)nc1Cc1ccnc(C(F)(F)F)c1 [Compound 15, 4-[[5-methoxy-2-[4-(trifluoromethyl)phenyl]-2H-1,2,3-triazol-4-yl]methyl]-2-(trifluoromethyl)pyridine] | 50% | 15 | 30 | 50 | 85 | 0 | 25 | 80 | 100 | 70 | 100 | 100 | 0 | 55 | 70 | 100 | 100 | 15 | 70 | 50 | Plant response rating, Blackgrass [1, 13]: 90; Plant response rating, Oilseed Rape [2, 11]: 10; Plant response rating, Oilseed Rape [2, 12]: 20; Plant response rating, Oilseed Rape [2, 13]: 75; Plant response rating, Galium [3, 11]: 30; Plant response rating, Galium [3, 12]: 100; Plant response rating, Galium [3, 13]: 100; plant injury at 62 g/ha (rice (Oryza sativa); [4]): 45%
Cc1nn(-c2ccc(C(F)(F)F)cn2)nc1Oc1ccnc(C(F)(F)F)c1 [Compound 23] | – | 10 | 10 | 20 | 30 | – | – | – | 50 | 75 | 85 | 95 | – | 30 | 50 | 70 | 90 | 5 | 50 | 25 | Plant response rating, Rice (rice (Oryza sativa); [4]): 0; Plant response rating, Rice (rice (Oryza sativa); [15]): 0; Plant response rating, Rice (rice (Oryza sativa); [5]): 30; Plant response rating, Rice (rice (Oryza sativa); Flood, 31 g ai/ha): 0
Cc1nn(-c2ccc(C(F)(F)F)cn2)nc1Cc1cccc(C(F)(F)F)c1 [Compound 106] | – | 10 | 10 | 20 | 30 | 0 | 0 | 0 | 10 | 10 | 80 | 95 | 10 | 40 | 40 | 40 | 60 | 5 | 10 | 20 | Plant response rating, Blackgrass [1, 13]: 0; Plant response rating, Oilseed Rape [2, 11]: 10; Plant response rating, Oilseed Rape [2, 12]: 10; Plant response rating, Oilseed Rape [2, 13]: 20; Plant response rating, Galium [3, 10]: 0; Plant response rating, Galium [3, 11]: 0; Plant response rating, Galium [3, 12]: 40; Plant response rating, Galium [3, 13]: 80; Plant response rating, Rice (rice (Oryza sativa); [15]): 25; Plant response rating, Rice (rice (Oryza sativa); [5]): 30; Plant response rating, Rice (rice (Oryza sativa); Flood, 31 g ai/ha): 0; Plant response rating, Rice (rice (Oryza sativa); Flood, 62 g ai/ha): 0
COCc1nn(-c2ccc(C(F)(F)F)cc2)nc1Oc1cccc(OC(F)(F)F)c1 [Compound 115, 4-(methoxymethyl)-5-[3-(trifluoromethoxy)phenoxy]-2-[4-(trifluoromethyl)phenyl]-2H-1,2,3-triazole] | 40% | – | – | – | – | – | – | – | – | – | – | – | – | – | – | – | – | – | – | – | plant injury at 125 g/ha (rice (Oryza sativa); [15]): 30%; plant injury at 62 g/ha (rice (Oryza sativa); Flood, 62 g ai/ha): 20%
FCc1nn(-c2ccc(C(F)(F)F)cc2)nc1Oc1cccc(OC(F)(F)F)c1 [Compound 116, 4-(fluoromethyl)-5-[3-(trifluoromethoxy)phenoxy]-2-[4-(trifluoromethyl)phenyl]-2H-1,2,3-triazole] | 30% | – | – | – | – | – | – | – | – | – | – | – | – | – | – | – | – | – | – | – | plant injury at 125 g/ha (rice (Oryza sativa); [15]): 20%; plant injury at 62 g/ha (rice (Oryza sativa); Flood, 62 g ai/ha): 0%
COc1nn(-c2ccc(C(F)(F)F)cc2)nc1Cc1ccnc(C(F)F)c1 [Compound 138] | – | 50 | 70 | 80 | 85 | – | – | – | 95 | 100 | 100 | 100 | – | 75 | 80 | 90 | 100 | 30 | 85 | 60 | –
Cc1nn(-c2ccc(F)c(C(F)(F)F)c2)nc1Cc1ccnc(C(F)(F)F)c1 [Compound 156] | – | 15 | 35 | 60 | – | 5 | 15 | 70 | 100 | 100 | 100 | – | 0 | 75 | 75 | 80 | – | 10 | 100 | 70 | Plant response rating, Blackgrass [1, 16]: 0; Plant response rating, Oilseed Rape [2, 16]: 0; Plant response rating, Oilseed Rape [2, 11]: 85; Plant response rating, Oilseed Rape [2, 12]: 100
